Reference: a melting point compilation (Tetko et al.; mined from patent text by program, amines drawn as free bases though some values may be those of a salt)

| SMILES | melting point [°C] |
| --- | --- |
| COC(=O)C(Oc1ccc(OCc2ccccc2)cc1)c1ccc(Oc2ccc(Cl)cc2)cc1 (configuration not stated) | 88 to 90 |
| CCCc1nc2c(N)nc3ccccc3c2n1CC(C)(C)CC(C)=O | 178 to 180 |
| O=C(c1c(F)cccc1F)N1CN(c2ccccc2)CN(c2ccc(Cl)cc2)C1=O | 166 to 168 |
| Cc1n[nH]c(C)c1CC1CC2c3cccc4[nH]cc(c34)CC2N(C)C1 (configuration not stated) | > 300 |
| CCOC(=O)c1c(C(F)(F)F)nc(C(F)(F)F)c(C(=O)OCC)c1Cl | 76 to 77 |
| CN1CCN(c2ccccc2C(F)(F)F)C(C2=NCCN2)C1 (configuration not stated) | 163 to 165 |
| COc1ccc(CNc2ccc(C#N)cc2F)cc1 | 113 |
| C=CCOC(=O)OCc1ccc(C#N)cc1C(=O)O | 81 to 83 |
| Cc1c(CNc2cccc(N)n2)c(C)c(CNc2cccc(N)n2)c(C)c1CNc1cccc(N)n1 | 130 to 132 |
| CCCCC(CC)C(=O)C=P(c1ccccc1)(c1ccccc1)c1ccccc1 (configuration not stated) | 106 to 108 |
| CCOC(=O)c1cccc2nc(OC)n(Cc3ccc(-c4ccccc4C#N)cc3)c12 | 160 to 161 |
| Fc1cc2c(cc1CN1CCOCC1)Cc1c(-c3ccsc3)n[nH]c1-2 | 222 |
| N#Cc1csc(-c2csc(C(O)(Cn3cncn3)c3ccc(F)cc3F)c2)n1 (configuration not stated) | 172 to 173 |
| CC(C)(C)OC(=O)N[C@H](CNC(=O)Nc1ccccc1)Cc1ccccc1 | 154 |
| COC(=O)C1C=CCN2C(=O)C(C)(CCOS(C)(=O)=O)C(=O)N12 (configuration not stated) | 104 to 105 |
| CCCCCCCCCCCCCC(=O)c1c(O)cc(C)c(O)c1CCC | 62 |

| SMILES | melting point [°C] |
| --- | --- |
| COC(=O)COc1cccc(OCCC(c2ccccc2)(c2ccccc2)c2ccccc2)c1 | 103 to 105 |
| C(=C\c1cn(-c2ccccc2)nc1OCc1ccccc1)/c1cscn1 | 101 to 102 |
| CCCCCCCCCCOC(=O)CS(=O)(=O)Nc1c(C(C)C)cccc1C(C)C | 65 to 67 |
| CC(=O)Nc1nc(C(F)(F)F)ns1 | 178 |
| N#Cc1cc(C#N)cc(Oc2cccc(Oc3cc(C#N)cc(C#N)c3)c2)c1 | 212 to 213 |
| COCCN(C)Cc1c(-c2ccc(NC(=O)NOC)cc2)sc2c1c(=O)n(-c1ccc3c(c1)OCCO3)c(=O)n2Cc1c(F)cccc1F | 155 to 156 |
| FC(F)(F)c1cc(-c2ccc(Cl)cc2)[nH]c1C(F)(F)F | 72 to 73 |
| CCc1nn(Cc2cccnn2)c(C(N)=O)c1N | 171 to 174 |
| O=C(O)/C=C/C=C/C=C/C1=Cc2ccccc2OC1 | 206 to 208 |
| CCn1c(COC(N)=O)nc(C(C)C)c1Sc1cc(C#N)cc(C#N)c1 | 174 to 175 |
| Oc1ccc2c(-c3cccc4ccc(O)cc34)noc2c1 | 262 to 264 |
| O=CCC1Cc2ccc(Br)cc2C1=O (racemic) | 84 |
| Cc1nc(-c2n[nH]c(Cc3ccccc3)n2)sc1C(=O)NCc1ccccc1 | 235 to 237 |
| Cc1ccccc1-c1ccc(C(=O)N2Cc3ccc(C(=O)CCc4cccnc4)n3Cc3ccccc32)cc1 | 135 to 136 |
| CCOC(=O)c1ccccc1N(CC(=O)N(C)c1ccccc1)C(=O)CNC(=O)Nc1cccc(C)c1 | 201 |
| CC(C)c1c(Sc2cc(Cl)cc(Cl)c2)nc(COCCO)n1C | 67 to 68 |

Second part, the compound after the results:

| melting point [°C] | SMILES |
| --- | --- |
| 195 to 197 | Cc1cc(C2CN(C(=O)Nc3ccc(OC(F)(F)F)cc3)N=C2c2ccccc2)on1 (configuration not stated) |
| 192 to 193 | O=C(O)c1nc(Cl)cc([N+](=O)[O-])c1Cl |
| 124 to 125 | O=C(OC1CCCCC1=O)c1ccc([N+](=O)[O-])cc1 (configuration not stated) |
| 116 to 118 | Cn1cnc([N+](=O)[O-])c1Oc1ccccc1 |
| 210 to 214 | O=C(O)COc1cccc2c1CCc1sc(S(=O)(=O)CC=Cc3ccccc3)nc1-2 |
| 40 to 42 | O=[N+]([O-])c1ccccc1S |
| > 300 | CNC1(C)CN(c2c(F)cc3c(=O)c(C(=O)O)cn(C4CC4)c3c2F)C1 |
| 159 to 160 | Cc1c(NC(=O)c2ccc(-c3ccccc3F)cc2F)ccc2cc(CN3CCCC3)cnc12 |
| 161 to 163 | CCOC(=O)c1ccc2cc(Oc3cccc([N+](=O)[O-])c3)ccn2c1=O |
| 161 | CCOC(=O)c1cn(CC)c2nc(N3CCN(CC)CC3)ncc2c1=O |
| 210 to 214 | Cc1cc2c(cc1S(=O)(=O)c1cc(Cl)cc(Cl)c1)OC(C(=O)O)O2 (configuration not stated) |
| 98 to 102 | CCCCC1(O)CCN(C(=O)C(c2ccccc2)n2cnc3[nH]ncc3c2=S)CC1 (configuration not stated) |
| 191 to 192 | O=C(Nc1ccc2nc(-c3ccccc3)oc2n1)c1ccccc1 |
| 146 to 148 | O=C(Nc1ccc(Oc2ccccc2)cc1)N1CCN(c2ncnc3cc([N+](=O)[O-])ccc23)CC1 |
| 206 | CS(=O)(=O)C(C#N)=Cc1c(Cl)n(Cc2ccccc2)c2ccccc12 |
| 185 to 187 | N#Cc1c(N2CCc3ccccc3CC2)nc(CCOC2CCCCO2)[nH]c1=O (configuration not stated) |
| 72 to 73 | O=C1N(c2cc(Cl)cc(Cl)c2)C(=O)C2(Cc3ccc(-c4ccc([N+](=O)[O-])cc4)cc3)CCCN12 (configuration not stated) |
| 92 to 94 | O=C(Nc1ccc(Oc2ccnc(NCCN3CCCC3)n2)c2ccccc12)c1cc(F)cc(N2CCCCC2)c1 |

| melting point [°C] | SMILES |
| --- | --- |
| 149 to 150 | C=C(c1ccc(N(C)C)cc1)c1ccc(N2CCCC2)cc1 |
| 147 to 149 | O=C1NC(=O)C(Cc2ccc(C(=O)/C=C/c3ccccc3)cc2)S1 (configuration not stated) |
| 149 to 150 | OC(Cn1cncn1)(c1ccc(Cl)cn1)c1ccc(Cl)cc1Cl (configuration not stated) |
| 84 | CCCO[C@@H]1C[C@@H](C(=O)NC)N(S(=O)(=O)c2ccc(Cl)c(COc3cccc4c(-n5ccnc5)cc(C)nc34)c2Cl)C1 |
| 113 to 114 | O=C(CNc1ccc2[nH]ncc2c1)N1CCC(Cc2ccc(F)cc2)CC1 |
| 226 to 227 | CCCOc1ccccc1-c1nc2c(C(N)=O)cccc2c(=O)[nH]1 |
| 230 to 232 | CC(C)(C)C(NC(=O)c1ccc(-c2ccco2)cc1)Nc1c(Nc2cccnc2)c(=O)c1=O (configuration not stated) |
| 158 to 161 | COc1ccc2c(c1)CCCC2N(CC(=O)O)C(=O)C(C)CSC(C)=O (configuration not stated) |
| 260 | CC(C)(C)OC(=O)Nc1ccncc1C(=O)O |
| 114 to 116 | CCc1nc(NC(=O)NS(=O)(=O)c2ccccc2OC(F)F)nc(OC)n1 |
| 125 | COc1ccc(S(=O)(=O)c2c(C(C)C)n(C)c3ccccc23)cc1 |
| 104 to 108 | CS(=O)(=O)c1ccc(C(CC2CCCC2)C(=O)Nc2cnccn2)cc1[N+](=O)[O-] (configuration not stated) |
| 101 to 102 | CC(C)(C)C(Cc1ccc(Br)cc1)C(=O)n1ccnc1 (configuration not stated) |
| 164 to 165 | COc1cc(OC)c(N2CCCC2)cc1/C=C/C(=O)c1ccc(S(=O)(=O)Nc2cc(C)on2)cc1 |
| 131 | CC(=O)OC1CSC(Oc2cncc(-c3ccc(C)c(C)c3)c2)C(OC(C)=O)C1OC(C)=O (configuration not stated) |
| 83 to 85 | CC(NC(=O)c1cccnc1Oc1cccnc1)c1ccc(Cl)s1 (single isomer, unassigned; (+)) |
| 76 to 79 | CCCCCN(CCCCC)C(=O)C(CCC(=O)O)CS(=O)(=O)c1ccc(Cl)c(Cl)c1 (configuration not stated) |
